Literature values in article PMC13021292, “Safety, tolerability and pharmacokinetics of DNDI‐6148, a novel agent for leishmaniasis: A randomized, controlled, single ascending dose study in healthy participants” (British Journal of Clinical Pharmacology, 2025).

Design: method as in earlier work
Settings: cited from earlier work

CC1(C)OB(O)c2cc(NC(=O)c3ccc(F)cc3C(F)(F)F)ccc21 [acoziborole]
metabolism and elimination in humans: slow liver metabolism and predominant hepato‐biliary elimination
